{"source": "patent US20090149518A1", "about": "“PHARMACEUTICAL FOR PROTECTION OF MOTOR NERVE IN PATIENT WITH AMYOTROPHIC LATERAL SCLEROSIS” (ONO PHARMACEUTICAL CO., LTD., priority 2005, published 2009)", "format_in_all_cases": "in vivo, human", "key": {"[1]": {"test_system": "ALS patients", "test": "Studies of the inventors: (2R)-2-propyloctanoic acid used alone in ALS patients", "settings": "without riluzole"}, "[2]": {"test_system": "patients with amyotrophic lateral sclerosis", "test": "Example 1 clinical study: survival", "settings": "Active group, 1200 mg once a day oral for 12 months plus standard riluzole; patients within about 14 months after onset of muscular weakness", "procedure": "As a clinical study, double blind placebo-controlled parallel group study was carried out on patients with amyotrophic lateral sclerosis, under the following conditions. […] (1) Active group: (2R)-2-propyloctanoic acid 1200 mg (four soft capsules comprising 300 mg of (2R)-2-propyloctanoic acid per capsule); Both Active and Placebo groups are administered for 12 months. Riluzole was administered to all subjects in Active and Placebo groups in the manner of standard therapy (riluzole 50 mg tablet: one tablet twice a day (before breakfast and dinner), oral daily dose of 100 mg). Evaluation method: Death was recorded for each subject, if and when it occurs. Evaluation time. Throughout the study. Suppression of respiratory disability and improvement in survival rate are shown by oral administration of (2R)-2-propyloctanoic acid in the patient within about 14 months after the onset of muscular weakness (Active group: 55 patients, Placebo group: 54 patients. Both Active and Placebo groups are treated with standard riluzole therapy). Hereinafter, each result is described in detail, […]"}, "[3]": {"test_system": "patients with amyotrophic lateral sclerosis", "test": "Example 2 clinical study: safety measurements", "settings": "1200 mg once a day oral for 18 months plus standard riluzole", "procedure": "(§1) As a clinical study, double blind placebo-controlled parallel group study was carried out on patients with amyotrophic lateral sclerosis, under the following conditions.\n(§2) (1) Active group: (2R)-2-propyloctanoic acid 1200 mg (four soft capsules comprising 300 mg of (2R)-2-propyloctanoic acid per capsule);\n(§3) Both Active and Placebo group are administered for 18 months.\n(§4) Riluzole was administered to all subjects in Active and Placebo group in the manner of standard therapy (riluzole 50 mg tablet: one tablet twice a day (before breakfast and dinner), oral daily dose of 100 mg).\nEvaluation method: Blood pressure and pulse of the subject were recorded at the following evaluation times.\nEvaluation method: 12 lead ECG was conducted at the following evaluation times. Sinus rhythm, RR interval, PR interval, QRS duration, QT/QTc, and so forth were assessed.\nEvaluation method: Weight of the subject was measured at the following evaluation times.\nEvaluation method: Clinical laboratory test (haematology, biochemistry and urinalysis) of the subject was conducted at the following evaluation times.\n(§5) Evaluation method: Incidence and content (e.g., symptom, causal association, etc.) of clinical adverse events were monitored for each subject."}, "[4]": {"test_system": "patients with amyotrophic lateral sclerosis", "test": "Example 1 clinical study: clinical adverse events", "settings": "Active group, 1200 mg once a day oral for 12 months plus standard riluzole", "procedure": "as §1, §2\n(§6) Both Active and Placebo groups are administered for 12 months.\n(§7) Riluzole was administered to all subjects in Active and Placebo groups in the manner of standard therapy (riluzole 50 mg tablet: one tablet twice a day (before breakfast and dinner), oral daily dose of 100 mg).\nas §5\nEvaluation time: Throughout the study."}, "[5]": {"test_system": "patients with amyotrophic lateral sclerosis", "test": "Example 2 clinical study: efficacy measurements", "settings": "1200 mg once a day oral for 18 months plus standard riluzole; patients less than 14 months from onset of muscular weakness", "procedure": "as §1\n(3) Less than 14 months from onset of muscular weakness;\nas §2, §3, §4\n(§8) Evaluation method: Slow vital capacity (SVC) of the subject was measured at the following evaluation times. SVC was measured three times in the sitting position, allowing sufficient recovery time between each manoeuvre. The highest SVC value was recorded.\nEvaluation method: Functional status of the subject was assessed at the following evaluation times using revised amyotrophic lateral sclerosis functional rating scale (ALSFRS-R) shown in above-mentioned Table 1 to 13.\nEvaluation method; Muscle strength of the subject was assessed at the following evaluation times using medical research council scale shown in before-mentioned Table 14. […]\nEvaluation method: Death, bronchotomy, and using noninvasive ventilator were recorded for each subject, if and when it occurs. […]"}, "[6]": {"test_system": "patients with amyotrophic lateral sclerosis", "test": "Example 1 clinical study: respiratory function (slow vital capacity)", "settings": "Active group", "procedure": "as §1, §2, §6, §7, §8\nEvaluation time: 1, 2, 4, 6, 8, 10 and 12 month(s) from the start of administration.\nSuppression of respiratory disability and improvement in survival rate are shown by oral administration of (2R)-2-propyloctanoic acid in the patient within about 14 months after the onset of muscular weakness (Active group: 55 patients, Placebo group: 54 patients. Both Active and Placebo groups are treated with standard riluzole therapy). Hereinafter, each result is described in detail, […]"}}, "data": [{"compound": "CCCCCC[C@@H](CCC)C(=O)O", "note": "[(2R)-2-propyloctanoic acid]", "values": [{"measurement": "effect on ALS patients when used alone", "setting": "[1]", "value": "cannot exert any satisfactory effect"}, {"measurement": "mortality in the dosing period", "setting": "[2]", "value": "9 of 55"}, {"measurement": "survival rate", "setting": "[2]", "value": 84, "unit": "%"}, {"measurement": "safety in ALS patient", "setting": "[3]", "value": "safe"}, {"measurement": "frequency of adverse event", "setting": "[4]", "value": 89, "unit": "%"}, {"measurement": "frequency of serious adverse event", "setting": "[4]", "value": 49, "unit": "%"}, {"measurement": "effectiveness on suppressing muscular weakness, suppressing respiratory disability, extending survival period, improvement in quality-of-life measures", "setting": "[5]", "value": "shows its effectiveness on at least one of"}, {"measurement": "reduction of slow vital capacity (% of the predicted value) at 12 months from the start of administration compared to before-administration", "setting": "[6]; 1200 mg once a day oral for 12 months plus standard riluzole 100 mg/day, patients within about 14 months after onset of muscular weakness (55 patients)", "value": 38.27, "unit": "%"}, {"measurement": "patients whose slow vital capacity was lowered to 50% or less of predicted in 12 months", "setting": "[6]; 1200 mg once a day oral plus standard riluzole, patients within about 14 months after onset of muscular weakness, result of estimation", "value": "about 35 % of patients"}]}]}
